Reference: ChEMBL document CHEMBL1201862, “PubChem BioAssay data set” (2004)
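Five concentrations, 48 hours, 96-well plates. GI50 is the concentration that inhibits growth by half.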 Calls of active or inactive are those of the source. Cut-off read from the data, not from the text of the source: active = GI50 up to about 1.1 µM and inactive = higher.

How the values were obtained:
Assay in all cases: NCI anticancer screen, dose series, 48 h
A549 = system: A549
T47D = system: T47D
786-0 = system: 786-0
HL-60 = system: HL-60
PC-3 = system: PC-3
MDA-MB-231 = system: MDA-MB-231
UACC-62 = system: UACC-62
ACHN = system: ACHN
MDA-N = system: MDA-N
Malme-3M = system: Malme-3M
HT-29 = system: HT-29
CAKI-1 = system: CAKI-1
SW-620 = system: SW-620
SF-295 = system: SF-295
RXF 393 = system: RXF 393
SK-MEL-2 = system: SK-MEL-2
HOP-92 = system: HOP-92
NCI-H522 = system: NCI-H522
NCI-H226 = system: NCI-H226
SNB-19 = system: SNB-19

SMILES	GI50 (A549)	GI50 (T47D)	GI50 (786-0)	GI50 (HL-60)	GI50 (PC-3)	GI50 (MDA-MB-231)	GI50 (UACC-62)	GI50 (ACHN)	GI50 (MDA-N)	GI50 (Malme-3M)	GI50 (HT-29)	GI50 (CAKI-1)	GI50 (SW-620)	GI50 (SF-295)	GI50 (RXF 393)	GI50 (SK-MEL-2)	GI50 (HOP-92)	GI50 (NCI-H522)	GI50 (NCI-H226)	GI50 (SNB-19)
COC(=O)C1=C(OC(=O)/C(=C/c2ccccc2)c2ccc(Cl)cc2Cl)C(C(=O)OC)[C@@]2(O)[C@@H](C(=O)OC)[C@H](C)C[C@@H]1[C@@H]2C(=O)OC (stereo not given in full)	> 100 µM (inactive)	> 100 µM (inactive)	> 100 µM (inactive)	> 100 µM (inactive)	> 100 µM (inactive)	> 100 µM (inactive)	> 100 µM (inactive)	42 µM (inactive)	> 100 µM (inactive)	> 100 µM (inactive)	> 100 µM (inactive)	> 100 µM (inactive)	> 100 µM (inactive)	> 100 µM (inactive)	> 100 µM (inactive)	> 100 µM (inactive)	> 100 µM (inactive)	> 100 µM (inactive)	> 100 µM (inactive)	> 100 µM (inactive)
N#Cc1c(NC(=O)C(F)(F)F)sc2c3c(=O)c4ccccc4c(=O)c=3oc3ccccc3c12	19 µM (inactive)	21.4 µM (inactive)	25.6 µM (inactive)	4.46 µM (inactive)	8.93 µM (inactive)	24.3 µM (inactive)	7.55 µM (inactive)	21.1 µM (inactive)	18.3 µM (inactive)	1.1 µM (active)	19.2 µM (inactive)	15.4 µM (inactive)	25.1 µM (inactive)	11.7 µM (inactive)	10 µM (inactive)	15 µM (inactive)	19.7 µM (inactive)	7.89 µM (inactive)	8.02 µM (inactive)	20.3 µM (inactive)
O=C1c2c(O)ccc(O)c2C(=O)c2c(NCCNC(=O)C(O)C(O)C(O)C(O)CO)ccc(NCCNC(=O)C(O)C(O)C(O)C(O)CO)c21 (stereo not given)	< 0.01 µM (active)	0.0102 µM (active)	< 0.01 µM (active)	< 0.01 µM (active)	0.131 µM (active)	0.0467 µM (active)	0.0154 µM (active)	< 0.01 µM (active)	< 0.0494 µM (active)	0.212 µM (active)	0.03 µM (active)	< 0.01 µM (active)	0.0213 µM (active)	< 0.01 µM (active)	0.221 µM (active)	1.08 µM (active)	< 0.01 µM (active)	< 0.02 µM (active)	< 0.0126 µM (active)	< 0.01 µM (active)
COC(=O)/C=C\c1ccc2c(c1)CC1(C2)Cc2ccc(/C=C/C(=O)OC)cc2C1 (stereo not given)	> 31.6 µM (inactive)	> 31.6 µM (inactive)	19.6 µM (inactive)	> 31.6 µM (inactive)	> 31.6 µM (inactive)	17.2 µM (inactive)	> 31.6 µM (inactive)	> 31.6 µM (inactive)	> 31.6 µM (inactive)	29.4 µM (inactive)	> 31.6 µM (inactive)	0.918 µM (active)	> 100 µM (inactive)	21.5 µM (inactive)	> 31.6 µM (inactive)	> 10 µM (inactive)	28.4 µM (inactive)	17.4 µM (inactive)	> 31.6 µM (inactive)	27 µM (inactive)
CC(=O)O[C@H]1[C@@H](N2CCN(C)CC2)C[C@H]2[C@@H]3CC=C4C[C@@H](N5CCCC5)CC[C@]4(C)[C@H]3CC[C@@]21C	37.7 µM (inactive)	> 100 µM (inactive)	25.8 µM (inactive)	11.2 µM (inactive)	40.9 µM (inactive)	63 µM (inactive)	59.4 µM (inactive)	> 100 µM (inactive)	26.1 µM (inactive)	26.1 µM (inactive)	4.14 µM (inactive)	49.4 µM (inactive)	44.9 µM (inactive)	21.7 µM (inactive)	22.2 µM (inactive)	> 100 µM (inactive)	> 100 µM (inactive)	23.4 µM (inactive)	> 100 µM (inactive)	> 100 µM (inactive)
Cc1ccc(C(=O)/C=C2/Nc3ccccc3NC2=O)c(C)c1	13.7 µM (inactive)	22.1 µM (inactive)	4.19 µM (inactive)	23.4 µM (inactive)	18.2 µM (inactive)	14.3 µM (inactive)	5.37 µM (inactive)	8.36 µM (inactive)	17.5 µM (inactive)	54.6 µM (inactive)	23.4 µM (inactive)	3.95 µM (inactive)	27.2 µM (inactive)	9.46 µM (inactive)	7.52 µM (inactive)	46.5 µM (inactive)	3.04 µM (inactive)	7.73 µM (inactive)	10.8 µM (inactive)	9.71 µM (inactive)
COc1ccccc1/N=N/C(=N/NC(=O)c1ccc(C)cc1)c1ccc(N(CCC#N)CCC#N)cc1OC	33.5 µM (inactive)	18.7 µM (inactive)	31.7 µM (inactive)	10.8 µM (inactive)	26.5 µM (inactive)	24.9 µM (inactive)	38.3 µM (inactive)	19.6 µM (inactive)	23.2 µM (inactive)	38.1 µM (inactive)	33.1 µM (inactive)	52.7 µM (inactive)	38.1 µM (inactive)	41 µM (inactive)	22.9 µM (inactive)	19.8 µM (inactive)	27.4 µM (inactive)	33.7 µM (inactive)	80 µM (inactive)	30.8 µM (inactive)
